# In ChEMBL document CHEMBL1201862, “PubChem BioAssay data set” (2004):
#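 Grown in 96-well plates, cells were treated for 48 hours with each compound at five concentrations. Insufficient inhibition: endpoint recorded as highest concentration tested. Here, GI50 denotes the concentration required for 50% inhibition of growth.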 Activity calls are given as the source filed them. Rule as the data show it: active = GI50 up to about 1.1 µM and inactive = higher.
# Key:
# Experiment in all cases: NCI tumour cell line growth inhibition, 48 h
# [1] = system: SNB-75
# [2] = system: HCC 2998
# [3] = system: HOP-62
# [4] = system: HOP-92
# [5] = system: NCI-H226
# [6] = system: OVCAR-3
# [7] = system: ACHN
# [8] = system: MOLT-4
# [9] = system: SF-268
# [10] = system: HL-60
# [11] = system: RXF 393
# [12] = system: TK-10
# [13] = system: SK-OV-3
# [14] = system: SR
# [15] = system: SF-295
# [16] = system: SN12C
# [17] = system: CAKI-1
# [18] = system: OVCAR-4
# [19] = system: SW-620
# [20] = system: PC-3
Compound,GI50 [1],GI50 [2],GI50 [3],GI50 [4],GI50 [5],GI50 [6],GI50 [7],GI50 [8],GI50 [9],GI50 [10],GI50 [11],GI50 [12],GI50 [13],GI50 [14],GI50 [15],GI50 [16],GI50 [17],GI50 [18],GI50 [19],GI50 [20]
O=[N+]([O-])C1=Cc2cc(Cl)ccc2OC1c1cccc2ccccc12 (stereo not given),0.6 µM (active),0.984 µM (active),0.871 µM (active),1.34 µM (inactive),1.62 µM (inactive),0.603 µM (active),1.52 µM (inactive),0.251 µM (active),1.26 µM (inactive),3.83 µM (inactive),0.405 µM (active),1.27 µM (inactive),1.61 µM (inactive),0.224 µM (active),2.38 µM (inactive),0.723 µM (active),0.366 µM (active),1.57 µM (inactive),0.149 µM (active),0.635 µM (active)
COC(=O)NC1C(C)OC(OC2C/C=C(/C)C3C=CC4C(OC5CC(OC6CC(O)C(OC7CC(O)C(OC)C(C)O7)C(C)O6)C(O)C(C)O5)C(C)CC(C)C4C3(C)C(=O)C3=C(O)C4(CC(C)C(CO)=CC4/C=C\2C)OC3=O)CC1(C)[N+](=O)[O-] (stereo not given),19.7 µM (inactive),16.6 µM (inactive),15.4 µM (inactive),5.45 µM (inactive),11.7 µM (inactive),6.84 µM (inactive),12.6 µM (inactive),3.72 µM (inactive),14.8 µM (inactive),4.51 µM (inactive),12.3 µM (inactive),10 µM (inactive),12 µM (inactive),14.8 µM (inactive),16.6 µM (inactive),12.9 µM (inactive),19.4 µM (inactive),3.48 µM (inactive),9.86 µM (inactive),15.9 µM (inactive)
O=C1/C(=C\c2c(-c3ccccc3)[nH]n(-c3ccccc3)c2=O)C(c2ccccc2)=NN1c1ccccc1,> 100 µM (inactive),> 100 µM (inactive),> 100 µM (inactive),81.3 µM (inactive),> 100 µM (inactive),> 100 µM (inactive),> 100 µM (inactive),> 100 µM (inactive),> 100 µM (inactive),> 100 µM (inactive),> 100 µM (inactive),> 100 µM (inactive),> 100 µM (inactive),20 µM (inactive),> 100 µM (inactive),> 100 µM (inactive),> 100 µM (inactive),> 100 µM (inactive),> 100 µM (inactive),> 100 µM (inactive)
CC1CCC2(OC1)OC1CC3C4CC=C5CC(OC6OC(CO)C(OC7OC(C)C(OC8OC(C)C(O)C(O)C8O)C(O)C7O)C(O)C6OC6OC(C)C(O)C(O)C6O)CCC5(C)C4CCC3(C)C1C2C (stereo not given),0.372 µM (active),0.313 µM (active),2.56 µM (inactive),0.0703 µM (active),1.36 µM (inactive),1.75 µM (inactive),1.47 µM (inactive),0.237 µM (active),0.56 µM (active),0.239 µM (active),0.583 µM (active),1.39 µM (inactive),1.07 µM (active),0.0196 µM (active),0.308 µM (active),0.267 µM (active),1.29 µM (inactive),0.275 µM (active),1.48 µM (inactive),0.724 µM (active)
CC(=NNC(=S)Nc1ccc(C)cc1)c1cccc(C(C)=NNC(=S)Nc2ccc(C)cc2)n1,4.69 µM (inactive),35.6 µM (inactive),9.82 µM (inactive),10 µM (inactive),13.7 µM (inactive),1.5 µM (inactive),5.66 µM (inactive),4.18 µM (inactive),> 100 µM (inactive),3.97 µM (inactive),14.4 µM (inactive),60.1 µM (inactive),47.3 µM (inactive),4.02 µM (inactive),11 µM (inactive),21.5 µM (inactive),4.75 µM (inactive),10.9 µM (inactive),10.9 µM (inactive),17.7 µM (inactive)
COc1ccc(C2CC(c3ccc(NS(=O)(=O)c4cc([N+](=O)[O-])ccc4C)cc3)=NN2S(=O)(=O)c2cc([N+](=O)[O-])ccc2C)cc1 (stereo not given),> 100 µM (inactive),10.5 µM (inactive),80 µM (inactive),34.3 µM (inactive),> 100 µM (inactive),33.4 µM (inactive),63.4 µM (inactive),33.3 µM (inactive),22.8 µM (inactive),51.6 µM (inactive),> 100 µM (inactive),52.6 µM (inactive),85.3 µM (inactive),51.4 µM (inactive),33 µM (inactive),43.5 µM (inactive),54.2 µM (inactive),40 µM (inactive),72.9 µM (inactive),33.8 µM (inactive)
O=C1C(Br)=Cc2c(Cl)sc(Cl)c21,13.3 µM (inactive),2.37 µM (inactive),7.45 µM (inactive),2.84 µM (inactive),> 100 µM (inactive),2.67 µM (inactive),2.91 µM (inactive),0.515 µM (active),3.4 µM (inactive),1.87 µM (inactive),2.46 µM (inactive),2.17 µM (inactive),15.5 µM (inactive),2.15 µM (inactive),24 µM (inactive),5.51 µM (inactive),3.05 µM (inactive),2.74 µM (inactive),2.19 µM (inactive),2.55 µM (inactive)
